{"source": "patent US9868763B2", "about": "“Modulators of protease activated receptors” (The University of Queensland, priority 2011, dated 2018)", "key": {"[1]": {"assay": "Pharmacokinetics, single oral dose", "format": "in vivo, Wistar rat", "procedure": "(§1) Male Wistar rats were surgically implanted with a jugular vein catheter. Blood samples (heparinised) were collected from the catheter of an unanaesthetised, unrestrained rat, 5 min prior to PAR2 antagonist 52 administration (10 mg/kg p.o.) and 30 min, 1-6, 8 and 24 h post-administration. Rats not implanted with a catheter were given PAR2 antagonist 52 (10 mg/kg/day p.o.) four days consecutively (n=6). On the fifth day, plasma, cerebrospinal fluid (CSF), paw tissue and intraperitoneal adipose were collected for LCMS analysis."}, "[2]": {"test_system": "SLIGRL-NH2-induced acute colonic inflammation", "assay": "PAR2-induced acute colonic inflammation", "format": "in vivo, Wistar rat", "conditions": "10 mg/kg p.o.", "method": "A polyethylene catheter (1.7-mm outer diameter) was inserted 8 cm into the colon via the anus, through which SLIGRL-NH2 (1 mg/rat) or saline vehicle (500 l) was administered. Rats remained anesthetized for 10 min and maintained at an angle of 40° to prevent leakage from the anus. Rats were allowed to recover with food and water supplied. All rats were terminated at 10 h after induction and scored appropriately for disease activity index (DAI) and macroscopic disease (see Disease Activity Index below). Colon tissue was taken for wet/dry ratio and MPO assay.\nDAI for both acute and chronic models was assessed and scored by an expert blinded to treatments. Scores incorporated mobility, gastrointestinal pathology, discomfort, and generalized sickness behaviour criteria (each scored 0-3). Any animal that reached stage 3 in any criteria was euthanized by CO2 inhalation and recorded as a disease-related mortality. Scores were summed and expressed as total disease score (maximum 12). DAI was measured at endpoint only (10 h) in the acute study and daily in the chronic TNBS study.\nColons were dissected post-mortem and given a macroscopic disease score based on that described previously (Bobin-Dubigeon et al., 2001) with some minor alterations (maximal score 14). The entire colon length was removed between the ileocolic and colorectal junction. Length and maximal distension width were measured. […]"}, "PAR2": {"target": "T1, PAR2 (Homo sapiens, UniProt P55085)", "T1 sequence (P55085 26-397)": "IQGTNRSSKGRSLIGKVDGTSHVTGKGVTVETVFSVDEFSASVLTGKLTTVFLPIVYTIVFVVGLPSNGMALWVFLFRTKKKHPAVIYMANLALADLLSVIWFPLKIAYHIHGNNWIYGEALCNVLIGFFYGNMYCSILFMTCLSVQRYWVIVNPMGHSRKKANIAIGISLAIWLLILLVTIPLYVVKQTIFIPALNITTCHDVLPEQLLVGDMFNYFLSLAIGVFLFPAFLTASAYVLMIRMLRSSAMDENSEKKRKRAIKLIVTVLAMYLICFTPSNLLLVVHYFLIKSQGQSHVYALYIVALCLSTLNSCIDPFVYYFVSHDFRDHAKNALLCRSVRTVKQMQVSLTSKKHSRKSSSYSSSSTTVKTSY", "assay": "PAR2 agonist inhibition (antagonism): intracellular Ca2+ release in HT29 cells", "format": "cell-based", "design": "endogenous in cells; host or cells: HT29 (human colorectal adenocarcinoma)", "conditions": "other ligands; inhibiting Ca2+ release in HT29 cells; 30 min pre-incubation, agonist at EC80", "procedure": "Cells are seeded overnight in 96-well black walled, clear bottomed, plate at approximately 2×10^4 to 4×10^5 cells per well. […] The cells are then washed twice with HBSS and transferred to a Polarstar spectrofluorimeter (BMG, Durham N.C.).\nThe cells are prepared as outlined above then treated with the ‘putative’ antagonist 30 min prior to the addition of either trypsin or a synthetic agonist at a concentration equal to the agonists EC80.\nThe cells were then treated with 1 μM of the PAR2 agonist 2f-LIGRLO-NH2 (FIG. 2A, n=5) or 100 nM Trypsin (FIG. 2B, n=1). Each data point represents mean±SEM. Net changes in fluorescence were calculated as a percentage relative to the maximum response given 1 μM 2f-LIGRLO-NH2 or 100 nM Trypsin. Changes in fluorescence (% response) were plotted against logarithmic compound concentrations. The half maximal inhibitory concentration (IC50) values were derived from the dose response curve using a nonlinear regression curve in Graphpad Prism v5."}, "MIN6 beta cells": {"test_system": "MIN6 beta cells", "assay": "Glucose-stimulated insulin secretion (GSIS)", "format": "cell-based, mouse", "conditions": "52 as pre-treatment before 2f-LIGRLO-NH2", "procedure": "Rat pancreas and mouse MIN6 beta cells were cultured in DMEM (25 mM glucose) supplemented with 15% fetal calf serum, 10 U/mL penicillin, 10 U/mL streptomycin, 2 mM L-glutamine and […] 2-mercaptoethanol. MIN6 beta cells were passaged and harvested using non-enzymatic cell dissociation solution (Sigma-Aldrich). Glucose-stimulated insulin secretion (GSIS) was performed as described next. MIN6 beta cells were seeded at 0.8×106 mL in a 96-well plate and cultured for 48 h. Cells were washed twice with glucose-free Krebs buffer (NaCl 119 mM, KCl 4.74 mM, CaCl2 2.54 mM, MgCl2 1.19 mM, KH2PO4 1.19 mM, NaHCO3 25 mM, HEPES (pH 7.4) 10 mM and 0.05% BSA). Cells were pre-treated with compound 52 for 30 min with Krebs buffer supplemented with 2.5 mM glucose. After incubation, cells were washed twice with glucose-free Krebs buffer. Glucose (2.5 mM and 25 mM) and compounds were added at specified concentration and incubated for 1 h. Supernatants were collected and insulin concentrations were determined by ELISA (Abeam)."}, "[3]": {"assay": "Pharmacokinetics, four consecutive daily oral doses", "format": "in vivo, Wistar rat", "conditions": "10 mg/kg/day p.o. for 4 days", "procedure": "as §1"}, "β-tryptase": {"target": "T2, β-tryptase (Homo sapiens, UniProt Q15661)", "T2 construct": "purchased Promega", "T2 sequence (Q15661 31-275)": "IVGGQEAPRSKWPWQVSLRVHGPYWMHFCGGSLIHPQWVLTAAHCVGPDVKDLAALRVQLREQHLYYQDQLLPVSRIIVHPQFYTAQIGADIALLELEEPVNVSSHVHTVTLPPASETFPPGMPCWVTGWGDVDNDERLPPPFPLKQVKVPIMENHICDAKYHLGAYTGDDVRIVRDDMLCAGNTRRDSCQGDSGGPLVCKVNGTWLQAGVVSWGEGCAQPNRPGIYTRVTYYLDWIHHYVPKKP", "assay": "Tryptase activity assay", "format": "biochemical", "conditions": "20 μM; substrate tosyl-Gly-Pro-Arg-pNA", "procedure": "β-tryptase (10 ng/μL, 100 μL) was incubated±PAR2 antagonist 52 (20 μM) for 15 min, to which substrate tosyl-Gly-Pro-Arg-pNA (250 μM) was added. Absorbance was measured as optical density at 405 nm (FLUOstar Optima, BMG labtech, Aust.) every 41 s for 1 h."}, "[4]": {"conditions": "male, Wistar, rat, 10 mg/kg oral gavage, plasma"}}, "note": "“Also recorded” adds a separate entry of the source. Like-named read-outs stand apart in the source and are kept apart here.", "data": [{"smiles": "CC[C@H](C)[C@@H](NC(=O)[C@H](CC1CCCCC1)NC(=O)c1ccno1)C(=O)N1CCC2(C=Cc3ccccc32)CC1", "note": "[Compound 52]", "values": [{"measurement": "presence in plasma after 24 h", "setting": "[1]; 10 mg/kg oral gavage", "result": "No PAR2 antagonist 52 was present"}, {"measurement": "concentration at 3 h", "setting": "[1]; Wistar, rat, paw tissue homogenate, po, 3 h post administration, 10 mg/kg p.o., LCMS/MS, read-out: concentration in paw tissue homogenates", "result": 35, "unit": "nM"}, {"measurement": "bioavailability", "setting": "[1]; male, Wistar, rat, plasma, po, 10 mg/kg, 10 mg/kg p.o., from AUC 0-6 h, read-out: oral bioavailability F", "result": 55, "unit": "%"}, {"measurement": "Cmax", "setting": "[1]; [4]", "result": "1700 ± 400", "unit": "nM"}, {"measurement": "Tmax", "setting": "[1]; [4]", "result": "4 ± 0.6", "unit": "h"}, {"measurement": "half-life", "setting": "[1]; [4]", "result": "1.13 ± 0.13", "unit": "h"}, {"measurement": "acute colonic inflammation induced by SLIGRL-NH2", "setting": "[2]", "result": "inhibited"}, {"measurement": "edema, mucin depletion, PAR2 receptor internalization and mastocytosis", "setting": "[2]", "result": "markedly reduced"}, {"measurement": "IC50", "setting": "PAR2", "result": 1000, "unit": "nM"}, {"measurement": "glucose-stimulated insulin secretion", "setting": "MIN6 beta cells", "result": "normalised insulin secretion"}, {"measurement": "Cp after fourth dose greater than the single-dose Cp at 24 h", "setting": "[3]", "result": "~30", "unit": "%"}, {"measurement": "concentration at 5 day", "setting": "[3]; Wistar, rat, cerebrospinal fluid, oral, read-out: concentration in cerebral spinal fluid (none detected, LCMS/MS detection limit)", "result": "< 1.8", "unit": "nM"}, {"measurement": "Kp at 24 h", "setting": "[3]; Wistar, rat, intraperitoneal adipose / plasma, oral, read-out: intraperitoneal adipose concentration as share of Cp at 24 h", "result": "~0.3"}, {"measurement": "concentration at 5 day", "setting": "[3]; Wistar, rat, intraperitoneal adipose, oral, read-out: concentration in intraperitoneal adipose", "result": "150 ± 20", "unit": "nM"}, {"measurement": "concentration at 24 h", "setting": "[3]; Wistar, rat, plasma, oral, read-out: plasma concentration Cp at 24 h after the fourth dose", "result": "500 ± 100", "unit": "nM"}, {"measurement": "inhibition of proteolytic activity of β-tryptase", "setting": "β-tryptase", "result": "did not inhibit; also recorded: not inhibited"}]}]}
